From article PMC8513901, “Cooperative stabilisation of 14-3-3σ protein–protein interactions via covalent protein modification” (Chemical Science, 2021)

Target: T1, 14-3-3σ (Homo sapiens, UniProt P31947)
T1 construct: gene SFN; with ERα phospho-peptide (588AEGFPApTV595 in the crystal)
T1 sequence (P31947 1-248): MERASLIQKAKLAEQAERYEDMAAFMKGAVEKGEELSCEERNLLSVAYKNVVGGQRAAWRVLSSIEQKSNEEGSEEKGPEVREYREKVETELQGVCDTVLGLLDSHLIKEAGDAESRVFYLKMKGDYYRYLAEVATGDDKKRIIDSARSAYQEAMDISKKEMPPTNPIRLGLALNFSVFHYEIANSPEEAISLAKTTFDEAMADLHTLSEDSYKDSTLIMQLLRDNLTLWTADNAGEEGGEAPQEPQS
Test: crystal structure with ERα phospho-peptide and […]; FP dose-response and ITC stabilisation
Format: binding

C=CC(C)(C)OC[C@H]1O[C@H](O[C@@H]2C3=C([C@H](C)COC(C)=O)C[C@H](O)[C@]3(C)/C=C3/[C@@H](COC)CC[C@H]3[C@@H](C)[C@H]2O)[C@H](O)[C@@H](OC(C)=O)[C@@H]1O [compound 1, fusicoccin A]
EC50: 880 nM
